Laboratory results from patent US8193175B2, “Ruthenium complexes for treating cancers” (Universite de Strasbourg, priority 2004, dated 2012).

Tests used:
RDM4 line = assay: Proliferation test (UptiBlue) on RDM4 line; assay type: cell-based, mouse; conditions: 72 hours
Experimental: (§1) The products are tested on different cell lines. The cells used are RDM4 from a murine T lymphoma and a MOLT-4 line originating from an acute lymphoblastic leukemia. These cancer lines both express the p53 protein, unlike the HL-60 cells from a human promyelocytary leukemia where, following deletion of its gene, p53 is absent.
(§2) All of these cells are cultivated in RPMI 1640-Glutamax, supplemented by 10% calf foetal serum heat inactivated at 56° C. for 30 minutes, 1 mM sodium pyruvate, 1 mM non-essential amino acids and 50 μg/mL gentamycine (Life Technologies, Cergy Pontoise, France). The cultures are kept in an incubator at 37° C. with a moisture saturated atmosphere, with 5% CO2.
(§3) This test uses the UptiBlue reagent (Interchim, Montluçon, France), metabolised by the living cells. The cells are incubated on plates with 96 wells with 10^4 cells/well (200 μL) with the product and cultivated for 72 hours. Then, 20 μL UptiBlue are added to each well. After 3 hours incubation, the fluorescence of the samples contained in the plates is measured at 590 nm (excitation at 560 nm), using a Fluorolite 1000 microplate reader (Dynex technologies, Issy-Les-Moulineaux, France).
The potential anti-cancers are first of all selected on the RDM4 line. The effect of the different organo-ruthenium compounds upon the cell viability is firstly determined by a proliferation test as a function of the product concentration. The activity of the compounds derived from Ru is compared to that of cisplatinum. The exposure of the RDM4 cells to these derivatives is translated by a dose-dependent reduction in their proliferation. Therefore, the effect is dependent upon the organic complex which surrounds the Ru nucleus. The inhibition concentration of the growth of 50% of the cells (IC50) is determined for each of the products. […] The ruthenium derivatives showing an excessive IC50 (>50 μM) were eliminated from the biological study.

A172 glioblastoma cells = assay: Nucleus morphology and caspase 3 activation in A172 cells; assay type: cell-based, human; conditions: for nuclear condensation and fragmentation: 48 hrs treatment
Description: FIG. 2: A—The A172 cells were cultivated on glass slides. […] The cells were then fixed in 4% paraformaldehyde, permeabilised with 0.1% NP40 and marked with Hoechst dye (blue) and the anti-p20 antibody (active fragment of caspase 3, in red). The cells were then observed under the fluorescence microscope. B—Graphic representation of the number of cells with an apoptotic, fragmented or condensed nucleus. The bars are an average of two slides from one experiment representative of 3 carried out. C—In parallel, proteic extracts were prepared from cells treated with various drugs (cisplatinum 15 μM; CDR225 μM; CDR615 μM; CDR915 μM) and following denaturation the extracts were deposited on a !0% SDS-Page gel. After migration, the proteins were transferred onto nitrocellulose (Biorad, 0.2 μm) and the p20 fragment of the caspase 3 was detected by Western blot with an anti-p20 antibody (1/1000, R&D System).
(§4) The first step towards characterising the anticancerous effects of the compounds derived from ruthenium consists of testing their activity on tumoral lines kept in culture and comparing these effects on lines which have different characteristics as regards resistance to the anticancer treatments. Two lines of human glioblastomas (A172, HS683) and two lines of neuroblastomas (N2A and SH5Y) were used in order to test the cytostatic effects of the compounds according to the invention. Cisplatinum was chosen as the cytotoxic comparison agent. In a first approach, an MTT test was used to measure the activity of a mitochondrial enzyme, and this gives an estimate of the number of cells. Then, the cytotoxic effects of the compounds according to the invention were characterised in greater detail by analysing the morphology of the nucleus and the activation of caspase 3—two markers of cell apoptosis.

[1] = tested on: A172, HS683, N2A, and SH5Y; assay: MTT test on glioblastoma and neuroblastoma lines; assay type: cell-based, human; conditions: 48 hrs treatment; compared with cisplatinum
Experimental: FIG. 1: The A172 cells were cultivated on plates with 96 wells in DMEM medium with 10% calf serum. At 30% confluence, the cells were treated for 48 hrs with cisplatinum or the various compounds derived from ruthenium in the concentrations indicated (1, 5, 15, 50 μM). The quantity of cells present in the wells was evaluated by an MTT (MTT, Sigma) test of which the products of the reaction are quantified with an Elisa plate reader (Metertech, USA) (490-650 nm). The results obtained were related to the values of the control condition (100% viability). The graphs show an average of 8 points with the typical spacings over one experiment representative of 4 carried out. The thick black line indicates the IC50 for each graph.
TABLE 2: a summary of the results obtained on various cell lines and primary glial cultures. The experiments were carried out under the same conditions as those described for the A172 cells. Each IC50 is an indicative value obtained over 4 independent experiments.
as §4

NH32 = assay: Proliferation test (UptiBlue) on NH32; assay type: cell-based, human; conditions: 72 hours, unit inferred
Experimental: The influence of the p53 protein upon the effects induced by the products was determined by using the human lymphoblastoid line TK6 (p53 wild-type) and its NH32 variant of which the p53 gene was totally inactivated by double homologous recombination (Chuang et al, 1999). The TK6 cells originate from the American Tissue Culture Collection (ATGC, Manassas, Va., USA). The NH32 cells were supplied by H. L. Liber (Chuang et al, 1999).
as §2
as §3, with “France). […]” for “France).”

U-937 = assay: Proliferation test (UptiBlue) on U-937; assay type: cell-based, human; conditions: 72 hours, unit inferred
Experimental: as §2, §3
(§5) Compound 9 on other cell lines gives the following IC50: • 9 (NH32):3; 9 (Molt-4):3.8; 9 (WTK1): 3; 9 (U-937): 3. • RDM4: lymphoma, mouse AKR • TK6: human lymphoblastoid line • NH32: TK6 variant, not expressing p53 (“p53 knock-out”) • WTK1: other TK6 variant, expressing a p53 mutated gene • MOLT-4: human T lymphoblastic leukemia • U-937: human promonocyte leukemia Proliferation Test for the RDM4 Line with each Compound

RDM4 [2] = assay: DNA fragmentation by marking with propidium iodure on RDM4; assay type: cell-based, mouse
Description: A second specific marking of apoptosis is the fragmentation of DNA between the nucleosomes. The fragmented DNA is located in the apoptotic bodies in the terminal phase of apoptosis. This DNA is hypodiploid and so less in quantity than that present in normal cells. It can be quantified by flux cytometry after permeabilisation of the cell membranes and marking with PI. The quantity of DNA in a normal cell is 2n in the G0/G1 phase and 4n in the G2 phase. Therefore, the sub-G0 DNA in a quantity of less than 2n has a weaker fluorescence intensity.
This phenomenon tends to diminish after 48 hrs of treatment. On the other hand, when the cells are treated with 45 μM, the formation of hypodiploid particles, visualised by the sub-G0 DNA content, is less than 10% at 24 hrs and exceeds 50% at 48 hrs such as to reach 60% at 72 hrs. […] The quantity of hypodiploid particles in the control cells remains less than 4% over this same period.

WTK1 = assay: Proliferation test (UptiBlue) on WTK1; assay type: cell-based, human; conditions: 72 hours, unit inferred
Experimental: as §2, §3, §5

RDM4 [3] = assay: Apoptosis by marking with Annexin-V on RDM4; assay type: cell-based, mouse
Experimental: Cell death is measured by a first specific marking of the apoptosis. The externalisation of the anionic phospholipids, normally located on the inner layer of the plasmic membrane, is one of the precocious markers of apoptosis (Martin et al, 1996). Annexin-V is a protein which fixes specifically onto the phosphatidylserines in the presence of calcium. When Annexin-V is coupled to a fluorochrome, it makes it possible to quantify the apoptotic cells by flux cytometry.
The control cells are treated with the equivalent volume of solvent (ethanol). […] After 72 hrs, the apoptosis rate is still as low as that of the control cells. On the other hand, with treatment at 45 μM, this rate already reaches 70% at 24 hrs and exceeds 99% after 48 hrs—a sign of significant apoptosis induction.

MOLT-4 = assay: Proliferation test (UptiBlue) on MOLT-4; assay type: cell-based, human; conditions: 72 hours, UptiBlue; unit inferred; read-out: IC50 (Molt-4)
Experimental: as §1, §2
as §3, with “France). […]” for “France).”

SMILES	IC50 (RDM4 line)	nuclear condensation and fragmentation (A172 glioblastoma cells)	reduction of the number of tumoral cells (MTT) [1]	IC50 (NH32)	IC50 (U-937)	cell cycle distribution (propidium iodure) (RDM4 [2]; 15 μM, first two days)	hypodiploid particles (sub-G0 DNA content) (RDM4 [2]; 45 μM, 72 hrs)	IC50 (WTK1)	proteic levels of the active fragment of caspase 3 (Western blot) (A172 glioblastoma cells; cisplatinum 15 μM, CDR6 15 μM, CDR9 15 μM)	apoptosis rate (Annexin-V) (RDM4 [3]; 15 μM, up to 72 hrs)	apoptosis rate (Annexin-V) (RDM4 [3]; 45 μM, 24 hrs)	IC50 (MOLT-4)
CC#N.CC#N.Cc1ccnc(-c2cc(C)ccn2)c1.F[P-](F)(F)(F)(F)F.[Ru+][c]1ccccc1-c1ccccn1 [Compound 12, [Ru(C6H4-2-C5H4N)(4,4′-dimethyl-2,2′-bipyridine)(NCMe)2]PF6]	9 µM	induce nuclear condensation and fragmentation characteristic of apoptosis	at a concentration similar to or lower than that of cisplatinum									
CC#N.CC#N.CN(C)Cc1cccc[c]1[Ru+].F[P-](F)(F)(F)(F)F.c1ccc(-c2ccccn2)nc1 [Compound 13, [Ru-2-(CH2NMe2)—C6H4-(bipy) (NCMe)2]PF6]	11 µM											
CC#N.CC#N.CC#N.CP(C)c1ccccc1.F[P-](F)(F)(F)(F)F.[Ru+][c]1ccccc1-c1ccccn1 [Compound 9, [Ru (C6H4-2-C5H4N) (PMe2Ph) (NCMe)3]PF6]	12 µM	induce nuclear condensation and fragmentation characteristic of apoptosis	at a concentration similar to or lower than that of cisplatinum	3000 nM	3000 nM	accumulation in the G0/G1 phase	60%	3000 nM	increasing the proteic levels of the active fragment of caspase 3	does not shown any effect	70%	3.8 µM
